Experimental data: PMC4890880 (ACS infectious diseases, 2016)
Where two headings read alike, the source gives them in different places.

Tests used:
HepG2-A16-CD81EGFP cells [1] = assay: cells; conditions: Homo sapiens, HepG2, read-out: % inhibition
HepG2-A16-CD81EGFP cells [2] = assay: cells; conditions: Homo sapiens, HepG2, read-out: % inhibition; remark: listed apart in the source
[3] = test system: Plasmodium berghei (Pb-Luc) exoerythrocytic-stage parasites; assay: microbe, parasite or virus in culture
[4] = read-out: Inhibition% @ 50 uM rep1
[5] = read-out: Inhibition% @ 50 uM rep2

| SMILES | inhibition at 50 µM (HepG2-A16-CD81EGFP cells [1]) [%] | inhibition at 50 µM (HepG2-A16-CD81EGFP cells [2]) [%] | inhibition at 50 µM [3, 4] [%] | inhibition at 50 µM [3, 5] [%] |
| --- | --- | --- | --- | --- |
| Fc1ccc2[nH]c3c(NCCCN4CCOCC4)ncnc3c2c1 [MMV019871] | 58.8 | 74.2 | 103 | 103 |
| O=C(NC1CCN(Cc2ccccc2)CC1)c1cc(-c2ccncc2)nc2ccc(Cl)cc12 [MMV020275] | 89.1 | 90.6 | 52 | 39 |
| CC1CN(C(=O)c2sc3ccccc3c2Cl)CC(C)O1 (stereo not shown) [MMV020492] | 25 | 23.2 | 44 | 44 |
| CNCCCNc1ccnc2cc(Cl)ccc12 [MMV020500] | 101 | 101 | 104 | 105 |
| CC1CCN(Cc2ccc(NC(=O)c3cc4ccc5cccnc5c4[nH]3)cc2)CC1 [MMV020549] | 95.4 | 96.7 | 104 | 106 |
| COc1ccc(-c2nonc2NC(=O)c2cccc(Cl)c2)cc1OC [MMV020660] | 92 | 93.3 | 104 | 106 |
| Oc1ccccc1CNCC12CC3CC(CC(C3)C1)C2 [MMV020788] | 94 | 95.9 | 102 | 103 |
| COc1ccc(Br)cc1C1Nc2ccc3ccccc3c2C2=C1C(=O)CC(c1ccccc1)C2 (stereo not shown) [MMV020885] | 69.1 | 75.1 | 102 | 102 |
| COc1cc(SC)ccc1C(=O)N1CCCC(C)C1 (stereo not shown) [MMV056726] | 65.4 | 67.3 | 86 | 93 |
| CCOc1ccc(C2N(C)c3ccccc3N2C)cc1 [MMV075490] | 88 | 89.5 | 103 | 102 |
| CCOc1cc(Br)c(C(C)NC(=O)c2cccc(OC)c2)cc1OCC (stereo not shown) [MMV665796] | 88.4 | 96.9 | 103 | 104 |
| FC(F)(F)c1cccc(Nc2nc(-c3ccccc3)nc3ncccc23)c1 [MMV665798] | 95.3 | 98.3 | 103 | 104 |
| CCOc1cc(Cl)c(C(C)NC(=O)c2cccc(OC)c2)cc1OCC (stereo not shown) [MMV665803] | 86.5 | 97.7 | 104 | 106 |
| CCOc1ccc(-c2nonc2NC(=O)c2cccc(C)c2)cc1OCC [MMV665805] | 0.576 | 6.54 | 44 | 72 |
| Cc1c(C)n(CC(O)CNC2CCCCC2C)c2ccccc12 (stereo not shown) [MMV665806] | 31.3 | 47.6 | 90 | 92 |
| COc1ccc2c(=O)cc(C(Cl)(Cl)Cl)oc2c1 [MMV665820] | 96.4 | 98.1 | 103 | 102 |
| COc1cccc(NC(=O)Cn2c(C)c(C#N)c3ccccc32)c1 [MMV665826] | 49.1 | 77.8 | 102 | 101 |
| Oc1ccc(Cl)cc1CNc1nc2ccccc2[nH]1 [MMV665850] | 98.1 | 98.7 | 103 | 104 |
| CCOc1ccc(-c2nc(NC(=O)c3cccc(S(C)(=O)=O)c3)sc2C)cc1 [MMV665913] | 60.5 | 62.9 | 95 | 98 |
| COc1ccccc1N1CCN(C(CNS(=O)(=O)c2ccc(Cl)cc2)c2cccnc2)CC1 (stereo not shown) [MMV665914] | 49.3 | 59.7 | 96 | 96 |
| COc1ccc(-c2nc(NC(=O)CS(=O)(=O)c3ccc(F)cc3)sc2C)cc1 [MMV665915] | 92.4 | 95.2 | 101 | 100 |
| O=C(Nc1ccc(Cl)cc1)N1CCN(c2ccc3nncn3n2)CC1 [MMV665917] | 38.3 | 8.42 | 60 | 62 |
| O=C(CSc1ccc2nnc(-c3cccc(F)c3)n2n1)Nc1ccc2c(c1)OCO2 [MMV665918] | -2.83 | 0.859 | -43 | -48 |
| CCCCNCC(O)(c1ccc(Cl)cc1)c1ccc(Cl)cc1 [MMV665929] | 95.9 | 99.2 | 104 | 105 |
| O=C(Nc1ccsc1C(=O)NC1CCCCC1)c1ccc(F)cc1 [MMV665939] | 25.8 | 35 | 71 | 43 |
